Data published in patent publication US20210251963A1, “UREA DERIVATIVES FOR USE IN THE TREATMENT OF SUBJECTS WITH ELEVATED EXPRESSION AND/OR ACTIVITY OF SRPK1” (Scandion Oncology A/S, priority 2018, published 2021).

Legend:
Test in all cases: Premier Screen kinase activity screening (33P ATP filter binding)
Assay type in all cases: biochemical
Settings in all cases: 10 μM SCO-101, mean of assay duplicates, read-out: Kinase activity (percentage of DMSO control)
[1] = biological target: p38b MAPK (Homo sapiens, UniProt Q15759)
Excerpt: (§1) The kinase activity screening was done at MRC in Dundee. The screen was a so-called “Premier Screen” with 140 kinases. More specific information can be found here: http://www.kinase-screen.mrc.ac.uk/services/premier-screen
(§2) The method is based on a radioactive filter binding assay using 33P ATP (Hastie, et al 2006. Nat Protoc. 2006; 1(2):968-71; Bain, et al 2007. Biochem J. 2007 Dec. 15; 408(3):297-315). This method is sensitive, accurate and provides a direct measure of kinase enzyme activity. A concentration of 10 μM SCO-101 was used.
(§3) In the table below, the data is portrayed as the mean percentage activity of assay duplicates and a standard deviation. These percentage activities were calculated in comparison to DMSO controls. 10 μM SCO-101 reduced the activity of SRPK1 to 6% of the DMSO control.

[2] = biological target: ERK2 (Homo sapiens, UniProt P28482)
Excerpt: as §1, §2, §3

[3] = biological target: T1, EPH-A2 (Homo sapiens, UniProt P29317)
T1 construct: purchased MRC in Dundee (Premier Screen service)
Excerpt: as §1, §2, §3

[4] = biological target: MAP4K3 (Homo sapiens, UniProt Q8IVH8)
Excerpt: as §1, §2, §3

[5] = biological target: T2, EPH-B1 (Homo sapiens, UniProt P54762)
T2 construct: purchased MRC in Dundee (Premier Screen service)
Excerpt: as §1, §2, §3

[6] = biological target: T3, Lck (Homo sapiens, UniProt P06239)
T3 construct: purchased MRC Dundee, Premier Screen (contract screening service)
Excerpt: as §1, §2, §3

[7] = biological target: T4, LKB1 (Homo sapiens, UniProt Q15831)
T4 construct: MRC Dundee (screening service)
Excerpt: as §1, §2, §3

[8] = biological target: T5, DYRK3 (Homo sapiens, UniProt O43781)
T5 construct: purchased MRC in Dundee (Premier Screen service)
Excerpt: as §1, §2, §3

[9] = biological target: RIPK2 (Homo sapiens, UniProt O43353)
Excerpt: as §1, §2, §3

[10] = biological target: PKD1 (Homo sapiens, UniProt Q15139)
Excerpt: as §1, §2, §3

[11] = biological target: T6, Aurora B (Homo sapiens, UniProt Q96GD4)
T6 construct: purchased MRC in Dundee (Premier Screen service)
Excerpt: as §1, §2, §3

[12] = biological target: T7, PAK4 (Homo sapiens, UniProt O96013)
T7 construct: purchased MRC in Dundee (Premier Screen service)
Excerpt: as §1, §2, §3

[13] = biological target: T8, NEK2a (Homo sapiens, UniProt P51955)
T8 construct: purchased MRC in Dundee (Premier Screen service)
Excerpt: as §1, §2, §3

[14] = biological target: T9, TSSK1 (Homo sapiens, UniProt Q9BXA7)
T9 construct: MRC in Dundee (screening service)
Excerpt: as §1, §2, §3

[15] = biological target: T10, MARK2 (Homo sapiens, UniProt Q7KZI7)
T10 construct: MRC Dundee (screening service)
Excerpt: as §1, §2, §3

[16] = biological target: T11, CK1γ2 (Homo sapiens, UniProt P78368)
T11 construct: purchased MRC Dundee, Premier Screen (contract screening service)
Excerpt: as §1, §2, §3

[17] = biological target: T12, STK33 (Homo sapiens, UniProt Q9BYT3)
T12 construct: MRC Dundee (screening service)
Excerpt: as §1, §2, §3

[18] = biological target: CDK2-Cyclin A (Homo sapiens, UniProt P24941)
Excerpt: as §1, §2, §3

[19] = biological target: TLK1 (Homo sapiens, UniProt Q9UKI8)
Excerpt: as §1, §2, §3

[20] = biological target: T13, PRAK (Homo sapiens, UniProt Q8IW41)
T13 construct: purchased MRC in Dundee (Premier Screen service)
Excerpt: as §1, §2, §3

[21] = biological target: T14, MNK2 (Homo sapiens, UniProt Q9HBH9)
T14 construct: purchased MRC Dundee, Premier Screen (contract screening service)
Excerpt: as §1, §2, §3

[22] = biological target: T15, CHK1 (Homo sapiens, UniProt O14757)
T15 construct: purchased MRC in Dundee (Premier Screen service)
Excerpt: as §1, §2, §3

[23] = biological target: T16, YES1 (Homo sapiens, UniProt P07947)
T16 construct: MRC Dundee (screening service)
Excerpt: as §1, §2, §3

[24] = biological target: T17, FGF-R1 (Homo sapiens, UniProt P11362)
T17 construct: purchased MRC in Dundee (Premier Screen service)
Excerpt: as §1, §2, §3

[25] = biological target: T18, CAMK1 (Homo sapiens, UniProt Q14012)
T18 construct: purchased MRC in Dundee (Premier Screen service)
Excerpt: as §1, §2, §3

[26] = biological target: MKK1 (Homo sapiens, UniProt Q02750)
Excerpt: as §1, §2, §3

[27] = biological target: T19, CK1δ (Homo sapiens, UniProt P48730)
T19 construct: purchased MRC Dundee, Premier Screen (contract screening service)
Excerpt: as §1, §2, §3

[28] = biological target: T20, PLK1 (Homo sapiens, UniProt P53350)
T20 construct: purchased MRC in Dundee (Premier Screen service)
Excerpt: as §1, §2, §3

[29] = biological target: T21, MAP4K5 (Homo sapiens, UniProt Q9Y4K4)
T21 construct: purchased MRC Dundee, Premier Screen (contract screening service)
Excerpt: as §1, §2, §3

[30] = biological target: JAK3 (Homo sapiens, UniProt P52333)
Excerpt: as §1, §2, §3

[31] = biological target: T22, CK2 (Homo sapiens, UniProt P68400)
T22 construct: purchased MRC Dundee, Premier Screen (contract screening service)
Excerpt: as §1, §2, §3

[32] = biological target: T23, PIM1 (Homo sapiens, UniProt P11309)
T23 construct: purchased MRC in Dundee (Premier Screen service)
Excerpt: as §1, §2, §3

[33] = biological target: T24, PKA (Homo sapiens, UniProt P17612)
T24 construct: purchased MRC Dundee, Premier Screen (contract screening service)
Excerpt: as §1, §2, §3

[34] = biological target: T25, PKBa (Homo sapiens, UniProt P31749)
T25 construct: purchased MRC in Dundee (Premier Screen service)
Excerpt: as §1, §2, §3

[35] = biological target: T26, MNK1 (Homo sapiens, UniProt Q9BUB5)
T26 construct: MRC in Dundee (screening service)
Excerpt: as §1, §2, §3

[36] = biological target: T27, DYRK2 (Homo sapiens, UniProt Q92630)
T27 construct: purchased MRC in Dundee (Premier Screen service)
Excerpt: as §1, §2, §3

T17 sequence (P11362 22-822, species assumed): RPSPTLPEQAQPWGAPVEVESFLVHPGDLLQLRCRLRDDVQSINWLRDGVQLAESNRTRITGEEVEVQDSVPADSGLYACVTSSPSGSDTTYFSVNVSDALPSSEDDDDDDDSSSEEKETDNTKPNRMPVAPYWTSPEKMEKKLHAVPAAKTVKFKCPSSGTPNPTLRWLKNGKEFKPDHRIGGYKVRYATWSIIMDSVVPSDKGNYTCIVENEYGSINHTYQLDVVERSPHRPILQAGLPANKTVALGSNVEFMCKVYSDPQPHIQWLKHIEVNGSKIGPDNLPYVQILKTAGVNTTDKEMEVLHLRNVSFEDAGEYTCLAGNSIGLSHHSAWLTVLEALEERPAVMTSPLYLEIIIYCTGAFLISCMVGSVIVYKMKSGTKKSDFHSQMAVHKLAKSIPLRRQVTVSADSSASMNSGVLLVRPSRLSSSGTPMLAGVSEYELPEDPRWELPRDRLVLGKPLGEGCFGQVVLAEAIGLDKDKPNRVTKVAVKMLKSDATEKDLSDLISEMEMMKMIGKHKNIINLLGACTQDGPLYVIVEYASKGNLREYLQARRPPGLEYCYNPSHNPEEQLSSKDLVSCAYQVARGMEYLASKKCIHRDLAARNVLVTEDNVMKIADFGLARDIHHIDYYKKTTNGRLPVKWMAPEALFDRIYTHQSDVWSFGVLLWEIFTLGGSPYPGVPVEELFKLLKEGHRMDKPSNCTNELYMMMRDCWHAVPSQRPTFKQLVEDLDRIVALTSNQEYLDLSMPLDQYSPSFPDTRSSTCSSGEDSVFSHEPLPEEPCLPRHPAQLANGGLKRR
p38b MAPK, sequence (Q15759 whole entry): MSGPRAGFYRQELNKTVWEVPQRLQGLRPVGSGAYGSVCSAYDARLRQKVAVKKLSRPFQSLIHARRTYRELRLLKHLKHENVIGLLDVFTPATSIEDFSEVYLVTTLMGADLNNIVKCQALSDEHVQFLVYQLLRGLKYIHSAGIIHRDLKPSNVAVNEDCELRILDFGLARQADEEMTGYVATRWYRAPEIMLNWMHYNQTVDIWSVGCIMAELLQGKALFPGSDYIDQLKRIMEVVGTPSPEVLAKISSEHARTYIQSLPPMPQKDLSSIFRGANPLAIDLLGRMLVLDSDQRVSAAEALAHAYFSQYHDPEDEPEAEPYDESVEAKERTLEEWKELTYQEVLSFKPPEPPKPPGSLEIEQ
T26 sequence (Q9BUB5 whole entry, species assumed): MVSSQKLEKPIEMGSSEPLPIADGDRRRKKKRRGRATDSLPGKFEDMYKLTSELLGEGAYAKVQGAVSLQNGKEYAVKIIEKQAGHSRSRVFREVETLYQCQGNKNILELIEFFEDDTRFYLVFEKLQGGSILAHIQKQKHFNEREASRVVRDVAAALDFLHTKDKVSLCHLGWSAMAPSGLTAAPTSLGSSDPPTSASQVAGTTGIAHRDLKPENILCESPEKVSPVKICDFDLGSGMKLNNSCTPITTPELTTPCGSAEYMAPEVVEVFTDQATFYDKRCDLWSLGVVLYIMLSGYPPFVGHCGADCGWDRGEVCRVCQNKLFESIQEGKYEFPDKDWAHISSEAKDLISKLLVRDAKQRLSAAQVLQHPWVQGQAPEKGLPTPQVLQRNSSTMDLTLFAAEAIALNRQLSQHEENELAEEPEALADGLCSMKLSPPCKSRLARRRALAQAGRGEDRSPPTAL
PKD1, sequence (Q15139 whole entry): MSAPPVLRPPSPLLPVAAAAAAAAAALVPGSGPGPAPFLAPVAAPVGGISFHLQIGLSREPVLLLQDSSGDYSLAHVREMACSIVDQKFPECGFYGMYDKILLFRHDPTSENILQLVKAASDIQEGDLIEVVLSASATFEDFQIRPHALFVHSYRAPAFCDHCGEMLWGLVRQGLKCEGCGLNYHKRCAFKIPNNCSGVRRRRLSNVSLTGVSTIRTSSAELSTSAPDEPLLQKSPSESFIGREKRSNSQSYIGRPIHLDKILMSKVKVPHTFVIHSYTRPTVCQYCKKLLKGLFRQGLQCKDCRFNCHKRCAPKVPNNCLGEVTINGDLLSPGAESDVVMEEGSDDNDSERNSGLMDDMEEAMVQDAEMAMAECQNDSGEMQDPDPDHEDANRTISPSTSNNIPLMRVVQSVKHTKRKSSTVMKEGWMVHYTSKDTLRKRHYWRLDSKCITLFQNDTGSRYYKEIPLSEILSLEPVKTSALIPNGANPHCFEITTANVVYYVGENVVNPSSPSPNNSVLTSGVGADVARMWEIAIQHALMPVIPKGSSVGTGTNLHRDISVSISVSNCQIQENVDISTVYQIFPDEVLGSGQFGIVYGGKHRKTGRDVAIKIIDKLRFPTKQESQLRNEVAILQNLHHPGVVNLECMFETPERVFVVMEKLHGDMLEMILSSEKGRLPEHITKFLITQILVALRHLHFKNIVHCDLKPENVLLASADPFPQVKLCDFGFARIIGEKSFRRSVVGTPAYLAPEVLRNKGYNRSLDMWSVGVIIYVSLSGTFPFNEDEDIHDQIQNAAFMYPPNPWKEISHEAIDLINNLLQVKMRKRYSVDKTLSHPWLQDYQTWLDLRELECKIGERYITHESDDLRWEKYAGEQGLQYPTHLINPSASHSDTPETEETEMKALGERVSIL
T2 sequence (P54762 18-984, species assumed): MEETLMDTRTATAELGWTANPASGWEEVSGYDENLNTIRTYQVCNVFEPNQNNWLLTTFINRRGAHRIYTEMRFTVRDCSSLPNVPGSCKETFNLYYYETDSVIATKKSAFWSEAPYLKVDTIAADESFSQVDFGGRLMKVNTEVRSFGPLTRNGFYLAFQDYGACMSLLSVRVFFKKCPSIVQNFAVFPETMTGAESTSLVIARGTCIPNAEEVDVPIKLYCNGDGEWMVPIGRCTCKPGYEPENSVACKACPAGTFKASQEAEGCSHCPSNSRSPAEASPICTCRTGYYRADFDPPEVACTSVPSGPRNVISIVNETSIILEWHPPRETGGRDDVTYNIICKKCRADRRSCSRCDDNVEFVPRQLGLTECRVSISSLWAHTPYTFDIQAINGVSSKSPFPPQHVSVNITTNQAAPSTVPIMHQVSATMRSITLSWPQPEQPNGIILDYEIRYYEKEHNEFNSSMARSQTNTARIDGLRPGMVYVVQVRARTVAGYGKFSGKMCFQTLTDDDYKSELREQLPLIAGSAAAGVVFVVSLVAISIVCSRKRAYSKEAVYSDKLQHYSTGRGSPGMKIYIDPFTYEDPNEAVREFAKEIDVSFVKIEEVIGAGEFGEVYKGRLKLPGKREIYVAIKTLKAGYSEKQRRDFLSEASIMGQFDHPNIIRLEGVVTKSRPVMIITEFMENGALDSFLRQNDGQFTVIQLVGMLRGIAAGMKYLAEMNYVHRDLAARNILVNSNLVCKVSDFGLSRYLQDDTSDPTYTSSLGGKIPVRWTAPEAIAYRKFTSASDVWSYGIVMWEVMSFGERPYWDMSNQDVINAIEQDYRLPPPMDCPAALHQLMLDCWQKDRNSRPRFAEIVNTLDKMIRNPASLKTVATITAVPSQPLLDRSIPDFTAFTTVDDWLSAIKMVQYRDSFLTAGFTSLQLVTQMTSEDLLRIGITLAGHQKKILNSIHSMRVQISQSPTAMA
T20 sequence (P53350 whole entry, species assumed): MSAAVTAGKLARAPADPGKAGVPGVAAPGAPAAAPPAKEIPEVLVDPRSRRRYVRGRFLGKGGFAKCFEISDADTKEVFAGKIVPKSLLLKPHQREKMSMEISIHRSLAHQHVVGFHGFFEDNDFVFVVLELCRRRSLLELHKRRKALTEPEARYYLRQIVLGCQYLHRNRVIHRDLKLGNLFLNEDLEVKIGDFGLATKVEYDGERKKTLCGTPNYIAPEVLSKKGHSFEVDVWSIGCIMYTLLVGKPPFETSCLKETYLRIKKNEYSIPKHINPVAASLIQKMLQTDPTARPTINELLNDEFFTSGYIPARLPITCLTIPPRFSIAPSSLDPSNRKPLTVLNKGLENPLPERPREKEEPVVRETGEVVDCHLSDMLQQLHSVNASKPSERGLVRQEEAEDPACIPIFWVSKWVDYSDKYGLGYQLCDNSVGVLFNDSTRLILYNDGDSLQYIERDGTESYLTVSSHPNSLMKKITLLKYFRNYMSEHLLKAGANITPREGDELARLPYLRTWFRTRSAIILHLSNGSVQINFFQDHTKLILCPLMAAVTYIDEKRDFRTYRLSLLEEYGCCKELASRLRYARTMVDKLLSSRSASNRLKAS
T9 sequence (Q9BXA7 whole entry, species assumed): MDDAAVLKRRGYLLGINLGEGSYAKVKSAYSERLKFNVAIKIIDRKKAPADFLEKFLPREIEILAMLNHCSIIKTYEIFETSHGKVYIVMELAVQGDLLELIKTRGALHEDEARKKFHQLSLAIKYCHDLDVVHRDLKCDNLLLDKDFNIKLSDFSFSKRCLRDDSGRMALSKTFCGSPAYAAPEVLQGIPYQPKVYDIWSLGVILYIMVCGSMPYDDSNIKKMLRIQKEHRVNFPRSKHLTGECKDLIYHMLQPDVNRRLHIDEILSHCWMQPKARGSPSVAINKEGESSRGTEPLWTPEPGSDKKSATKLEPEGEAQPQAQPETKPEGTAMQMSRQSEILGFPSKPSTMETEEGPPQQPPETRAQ
T14 sequence (Q9HBH9 whole entry, species assumed): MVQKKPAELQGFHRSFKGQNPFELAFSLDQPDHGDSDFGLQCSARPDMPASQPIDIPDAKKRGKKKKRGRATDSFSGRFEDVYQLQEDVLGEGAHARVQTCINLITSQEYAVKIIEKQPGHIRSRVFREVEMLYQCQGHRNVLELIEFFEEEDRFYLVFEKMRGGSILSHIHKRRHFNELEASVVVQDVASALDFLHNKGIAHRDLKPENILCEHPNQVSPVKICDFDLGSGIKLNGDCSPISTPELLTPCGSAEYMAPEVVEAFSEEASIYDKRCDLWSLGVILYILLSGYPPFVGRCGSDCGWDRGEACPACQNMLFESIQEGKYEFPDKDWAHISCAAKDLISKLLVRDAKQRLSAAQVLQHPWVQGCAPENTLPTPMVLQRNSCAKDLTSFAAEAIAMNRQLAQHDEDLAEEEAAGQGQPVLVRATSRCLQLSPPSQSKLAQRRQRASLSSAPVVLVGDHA

SMILES: O=C(Nc1cc(C(F)(F)F)cc(C(F)(F)F)c1)Nc1ccc(Br)cc1-c1nnn[nH]1 [SCO-101]
- remaining activity at 10 µM [1]: 115%
- remaining activity at 10 µM [2]: 119%
- remaining activity at 10 µM [3]: 60%
- remaining activity at 10 µM [4]: 113%
- remaining activity at 10 µM [5]: 124%
- remaining activity at 10 µM [6]: 103%
- remaining activity at 10 µM [7]: 96%
- remaining activity at 10 µM [8]: 59%
- remaining activity at 10 µM [9]: 121%
- remaining activity at 10 µM [10]: 122%
- remaining activity at 10 µM [11]: 61%
- remaining activity at 10 µM [12]: 38%
- remaining activity at 10 µM [13]: 134%
- remaining activity at 10 µM [14]: 83%
- remaining activity at 10 µM [15]: 100%
- remaining activity at 10 µM [16]: 109%
- remaining activity at 10 µM [17]: 100%
- remaining activity at 10 µM [18]: 113%
- remaining activity at 10 µM [19]: 122%
- remaining activity at 10 µM [20]: 69%
- remaining activity at 10 µM [21]: 104%
- remaining activity at 10 µM [22]: 195%
- remaining activity at 10 µM [23]: 99%
- remaining activity at 10 µM [24]: 123%
- remaining activity at 10 µM [25]: 57%
- remaining activity at 10 µM [26]: 118%
- remaining activity at 10 µM [27]: 107%
- remaining activity at 10 µM [28]: 59%
- remaining activity at 10 µM [29]: 108%
- remaining activity at 10 µM [30]: 121%
- remaining activity at 10 µM [31]: 107%
- remaining activity at 10 µM [32]: 61%
- remaining activity at 10 µM [33]: 106%
- remaining activity at 10 µM [34]: 126%
- remaining activity at 10 µM [35]: 91%
- remaining activity at 10 µM [36]: 78%
